Results reported in patent US12509431B2, “1,4-dihydroquinazolinone compounds and uses thereof” (Edgewise Therapeutics, Inc., priority 2022, dated 2025).

Legend:
Format in all cases: biochemical
Details in all cases: Table 8
[1] = test system: Rabbit Skeletal myofibrils (rabbit psoas muscle); assay: Myofibril ATPase assay (PK/LDH NADH-coupled), skeletal myofibrils
Summary of the method: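 ATPase rate taken as linear-regression slope of A340 (NADH depletion through PK/LDH coupling) over a 75 min kinetic read, with psoas-derived rabbit skeletal myofibrils at pH 7.0. Four-parameter fits of vehicle-normalized activity give EC25 and, where reached, EC50.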

[2] = target: T1, Porcine Ventricle myofibrils (left ventricle of Yucatan minipigs) (Sus scrofa, UniProt P79293); assay: Myofibril ATPase assay (PK/LDH NADH-coupled), ventricle myofibrils
T1 construct: Myofibrils from porcine cardiac muscle was isolated from the left ventricle of Yucatan minipigs; tissue Exemplar Genetics; host or cells: left ventricle of Yucatan minipigs
T1 sequence (P79293 whole entry): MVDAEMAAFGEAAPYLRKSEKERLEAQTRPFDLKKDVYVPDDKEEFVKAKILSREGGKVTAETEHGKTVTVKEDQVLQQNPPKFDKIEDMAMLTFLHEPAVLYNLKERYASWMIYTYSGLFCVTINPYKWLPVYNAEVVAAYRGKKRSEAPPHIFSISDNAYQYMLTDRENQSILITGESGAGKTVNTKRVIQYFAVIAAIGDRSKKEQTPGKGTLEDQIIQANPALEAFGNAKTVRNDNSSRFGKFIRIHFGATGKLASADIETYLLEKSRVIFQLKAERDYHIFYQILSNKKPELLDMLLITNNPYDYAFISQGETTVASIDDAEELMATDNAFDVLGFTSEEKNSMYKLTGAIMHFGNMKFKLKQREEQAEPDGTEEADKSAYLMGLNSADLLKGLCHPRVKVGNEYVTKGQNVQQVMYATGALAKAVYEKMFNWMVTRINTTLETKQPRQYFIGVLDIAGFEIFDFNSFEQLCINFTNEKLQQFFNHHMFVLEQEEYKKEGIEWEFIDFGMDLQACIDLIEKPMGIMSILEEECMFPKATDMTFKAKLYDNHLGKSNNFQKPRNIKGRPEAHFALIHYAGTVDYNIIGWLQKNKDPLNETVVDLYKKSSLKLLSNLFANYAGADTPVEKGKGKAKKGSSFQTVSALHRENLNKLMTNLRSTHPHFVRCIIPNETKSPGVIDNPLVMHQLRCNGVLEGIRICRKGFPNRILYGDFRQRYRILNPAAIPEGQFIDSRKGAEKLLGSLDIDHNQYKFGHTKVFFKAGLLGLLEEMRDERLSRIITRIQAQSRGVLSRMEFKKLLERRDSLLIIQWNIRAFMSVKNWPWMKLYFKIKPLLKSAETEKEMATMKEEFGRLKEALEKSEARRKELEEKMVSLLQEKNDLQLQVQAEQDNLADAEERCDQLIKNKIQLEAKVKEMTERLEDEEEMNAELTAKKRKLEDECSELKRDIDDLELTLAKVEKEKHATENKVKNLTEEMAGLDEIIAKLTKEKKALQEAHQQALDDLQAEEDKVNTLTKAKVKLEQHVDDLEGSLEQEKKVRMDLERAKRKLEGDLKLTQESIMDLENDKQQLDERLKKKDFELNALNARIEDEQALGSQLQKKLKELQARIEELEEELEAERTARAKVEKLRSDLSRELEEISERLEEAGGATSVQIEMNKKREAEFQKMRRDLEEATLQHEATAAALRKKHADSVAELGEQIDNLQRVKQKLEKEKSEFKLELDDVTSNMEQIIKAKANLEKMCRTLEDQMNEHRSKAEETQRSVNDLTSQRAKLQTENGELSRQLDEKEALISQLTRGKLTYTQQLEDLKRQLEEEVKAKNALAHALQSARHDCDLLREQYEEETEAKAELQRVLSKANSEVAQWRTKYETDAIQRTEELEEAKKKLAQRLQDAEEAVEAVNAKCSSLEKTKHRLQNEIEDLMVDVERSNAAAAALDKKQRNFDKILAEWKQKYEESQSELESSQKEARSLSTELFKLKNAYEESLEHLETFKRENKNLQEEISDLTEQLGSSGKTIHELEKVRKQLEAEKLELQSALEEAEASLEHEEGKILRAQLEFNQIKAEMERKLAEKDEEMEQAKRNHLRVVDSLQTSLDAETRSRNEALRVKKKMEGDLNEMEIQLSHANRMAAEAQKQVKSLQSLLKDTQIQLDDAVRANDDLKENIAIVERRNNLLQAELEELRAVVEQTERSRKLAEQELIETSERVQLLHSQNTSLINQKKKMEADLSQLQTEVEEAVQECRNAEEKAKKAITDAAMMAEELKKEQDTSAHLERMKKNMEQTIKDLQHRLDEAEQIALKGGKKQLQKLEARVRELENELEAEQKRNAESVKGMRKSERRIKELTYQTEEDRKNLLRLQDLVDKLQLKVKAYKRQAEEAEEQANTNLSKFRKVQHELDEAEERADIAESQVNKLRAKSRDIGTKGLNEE
Summary of the method: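 NADH depletion (A340) coupled through pyruvate kinase/lactate dehydrogenase reports ATPase rate of porcine left-ventricle myofibrils over 75 min kinetic reads. Regression slopes, vehicle-normalized, fitted by 4-parameter logistic give EC25 and, where available, EC50.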

[3] = test system: Porcine Atria myofibrils; assay: Myofibril ATPase assay (PK/LDH NADH-coupled), atria myofibrils
Summary of the method: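 Values are EC25% (and, for inhibitors, EC50%) from 4-parameter logistic fits of activity normalized to vehicle wells. Rates came from linear regression of 340 nm kinetic reads (every 1.5-2 min, 75 min) of NADH-coupled ATP turnover by porcine atria myofibrils.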

Rabbit Psoas IC25 [1] [nM] | Porcine Ventricle IC25 [2] [nM] | Porcine Atria IC25 [3] [nM] | Compound
420 | 540 | 160 | C[C@@H](NC(=O)CN1Cc2c(ccc(F)c2F)NC1=O)c1ncc(Br)cc1F [Compound B292]
1830 | 39990 | 46590 | N#Cc1cnc2c(c1)CC[C@H]2NC(=O)CN1C(=O)Nc2ccc(F)cc2C12CC2 [Compound B294]
170 | 350 | 250 | N#Cc1cnc2c(c1)CC[C@@H]2NC(=O)CN1C(=O)Nc2ccc(F)cc2C12CC2 [Compound B295]
60 | 390 | 70 | O=C(CN1C(=O)Nc2ccc(F)c(F)c2C12CC2)N[C@@H]1COc2cc(F)cnc21 [Compound B296]
63220 | 100000 | 67410 | Cc1cccc2c1C1(CC1)N(CC(=O)N[C@@H]1COc3cc(C#N)cnc31)C(=O)N2 [Compound B299]
1390 | 1420 | 1420 | Cc1cccc2c1C1(CC1)N(CC(=O)N[C@H]1COc3cc(C#N)cnc31)C(=O)N2 [Compound B300]
2520 | 14900 | 4280 | Cc1cccc2c1C1(CC1)N(CC(=O)N[C@H](C)c1cnc(C#N)cn1)C(=O)N2 [Compound B301]
5650 | 2850 | 1080 | Cc1cccc2c1C1(CC1)N(CC(=O)N[C@@H](C)c1cnc(C#N)cn1)C(=O)N2 [Compound B302]
20 | 90 | 80 | N#Cc1cc(F)c2c(c1)OC[C@H]2NC(=O)CN1C(=O)Nc2cccc(C#N)c2C12CC2 [Compound B303]
1050 | 3960 | 1120 | N#Cc1cc(F)c2c(c1)OC[C@@H]2NC(=O)CN1C(=O)Nc2cccc(C#N)c2C12CC2 [Compound B304]
610 | 180 | 100 | C[C@@H](NC(=O)CN1C(=O)Nc2ccc(F)c(F)c2C12CC2)c1ncc(C#N)cc1Cl [Compound B306]
20 | 70 | 50 | C[C@H](NC(=O)CN1C(=O)Nc2ccc(F)c(F)c2C12CC2)c1ncc(C#N)cc1Cl [Compound B307]
100000 | 100000 | 20750 | Cc1cccc2c1C1(CC1)N(CC(=O)N[C@H](C)c1ncc(C#N)nc1C)C(=O)N2 [Compound B308]
2230 | 10570 | 10360 | Cc1cccc2c1C1(CC1)N(CC(=O)N[C@@H](C)c1ncc(C#N)nc1C)C(=O)N2 [Compound B309]
80 | 370 | 160 | N#Cc1cnc2c(c1)OC[C@H]2NC(=O)CN1C(=O)Nc2cccc(C#N)c2C12CC2 [Compound B310]
100000 | 86790 | 100000 | N#Cc1cnc2c(c1)OC[C@@H]2NC(=O)CN1C(=O)Nc2cccc(C#N)c2C12CC2 [Compound B311]
50 | 180 | 100 | Cc1cccc2c1C1(CC1)N(CC(=O)N[C@@H]1COc3cc(C#N)cc(F)c31)C(=O)N2 [Compound B312]
9120 | 3910 | 2290 | Cc1cccc2c1C1(CC1)N(CC(=O)N[C@H]1COc3cc(C#N)cc(F)c31)C(=O)N2 [Compound B313]
120 | 500 | 40 | C[C@@H](NC(=O)CN1C(=O)Nc2ccc(F)c(F)c2C12CC2)c1cnc(C#N)cn1 [Compound B314]
20 | 90 | 50 | C[C@H](NC(=O)CN1C(=O)Nc2ccc(F)c(F)c2C12CC2)c1cnc(C#N)cn1 [Compound B315]
5960 | 100 | 70 | N#Cc1cc(F)c2c(c1)OC[C@H]2NC(=O)CN1C(=O)Nc2ccc(F)c(F)c2C12CC2 [Compound B319]
330 | 240 | 230 | N#Cc1cc(F)c2c(c1)OC[C@@H]2NC(=O)CN1C(=O)Nc2ccc(F)c(F)c2C12CC2 [Compound B320]

Rabbit Psoas IC25 [1] [nM] | Porcine Ventricle IC25 [2] [nM] | Porcine Atria IC25 [3] [nM] | Compound
230 | 970 | 170 | N#Cc1cnc2c(c1)OC[C@H]2NC(=O)CN1C(=O)Nc2ccc(F)c(F)c2C12CC2 [Compound B321]
30 | 60 | 70 | N#Cc1cnc2c(c1)OC[C@@H]2NC(=O)CN1C(=O)Nc2ccc(F)c(F)c2C12CC2 [Compound B322]
630 | 320 | 100 | C[C@@H](NC(=O)CN1C(=O)Nc2ccc(F)c(F)c2C12CC2)c1ncc(C#N)cc1F [Compound B323]
30 | 50 | 40 | C[C@H](NC(=O)CN1C(=O)Nc2ccc(F)c(F)c2C12CC2)c1ncc(C#N)cc1F [Compound B324]
2340 | 3210 | 1040 | Cc1nc(C#N)cnc1[C@@H](C)NC(=O)CN1C(=O)Nc2ccc(F)c(F)c2C12CC2 [Compound B325]
20 | 60 | 160 | Cc1nc(C#N)cnc1[C@H](C)NC(=O)CN1C(=O)Nc2ccc(F)c(F)c2C12CC2 [Compound B326]
100000 | 100000 | 1530 | Cc1cc(C#N)nnc1[C@@H](C)NC(=O)CN1C(=O)Nc2ccc(F)cc2C12CC2 [Compound B328]
130 | 420 | 200 | Cc1cc(C#N)nnc1[C@H](C)NC(=O)CN1C(=O)Nc2ccc(F)cc2C12CC2 [Compound B329]
50 | 190 | 80 | Cc1nc(C#N)cnc1[C@@H](C)NC(=O)CN1C(=O)Nc2ccc(F)cc2C12CC2 [Compound B330]
100000 | 66750 | 370 | Cc1nc(C#N)cnc1[C@H](C)NC(=O)CN1C(=O)Nc2ccc(F)cc2C12CC2 [Compound B331]
60 | 100 | 60 | Cc1nc(C#N)ncc1[C@@H](C)NC(=O)CN1C(=O)Nc2ccc(F)cc2C12CC2 [Compound B332]
100000 | 100000 | 100000 | Cc1nc(C#N)ncc1[C@H](C)NC(=O)CN1C(=O)Nc2ccc(F)cc2C12CC2 [Compound B333]
1020 | 1560 | 580 | C[C@@H](NC(=O)CN1C(=O)Nc2ccc(F)cc2C12CC2)c1ccc(C#N)nn1 [Compound B334]
100000 | 100000 | 9420 | C[C@H](NC(=O)CN1C(=O)Nc2ccc(F)cc2C12CC2)c1ccc(C#N)nn1 [Compound B335]
170 | 270 | 100 | C[C@@H](NC(=O)CN1C(=O)Nc2ccc(F)cc2C12CC2)c1cnc(C#N)cn1 [Compound B336]
100000 | 7010 | 1010 | C[C@H](NC(=O)CN1C(=O)Nc2ccc(F)cc2C12CC2)c1cnc(C#N)cn1 [Compound B337]
17150 | 1670 | 80 | Cc1nc([C@@H](C)NC(=O)CN2Cc3c(ccc(F)c3F)NC2=O)cnc1C#N [Compound B338]
100000 | 100000 | 3800 | Cc1nc(C(C)NC(=O)CN2Cc3c(ccc(F)c3F)NC2=O)no1 (stereo not drawn) [Compound B340]
1680 | 350 | 730 | C[C@@H](NC(=O)CN1Cc2c(ccc(F)c2F)NC1=O)c1ncnc(C#N)c1F [Compound B341]
2450 | 4850 | 930 | C[C@H](NC(=O)CN1Cc2c(ccc(F)c2F)NC1=O)c1ncnc(C#N)c1F [Compound B342]
100000 | 100000 | 4120 | Cc1ncnc([C@@H](C)NC(=O)CN2Cc3c(ccc(F)c3F)NC2=O)c1F [Compound B343]
